Reference: PMC6271697, “Anticancer Activities of Polyynes from the Root Bark of Oplopanax horridus and Their Acetylated Derivatives” (Molecules, 2014)

How the values were obtained:
Type in all cases: cell-based, human
[1] = system: LO2 cells; experiment: MTT cell viability assay, normal hepatic LO2 cells; details: normal human hepatic cells, MTT, 24 h incubation; read-out: IC50 LO2
Description: (§1) The human breast cancer cell lines MCF-7, MDA-MB-231, human hepatocellular liver cell line HepG2 and human lung carcinoma epithelial cells A549 were purchased from American Type Culture Collection (ATCC, Manassas, VA, USA). Normal human hepatic LO2 cells were obtained from the Institute of Cell Biology, Academic Sinica (Shanghai, China). The cells were grown in an atmosphere of 5% CO2 at 37 °C in RPMI 1640 medium supplemented with 10% fetal bovine serum, 100 U/mL penicillin and […] streptomycin.
(§2) The viability of cells was measured by a colorimetric MTT assay. Briefly, 1 × 10^4 cells/well in 96-well microplates were exposed to different concentration of polyynes and their acetylated derivatives respectively for 24 h incubation, following addition of 20 μL MTT solution (4 mg/mL) to each well for another 4 h incubation at 37 °C. Finally, the medium was removed and replaced with 100 μL dimethyl sulfoxide which was added to dissolve the dye crystal presented in cells. The absorbance was recorded at 570 nm using a microplate reader (1420 Multilabel counter victor^3, Perkin-Elmer, Waltham, MA, USA). The results were expressed as ratio of absorbance between treatments and control cells (solvent vehicle set at 100%). Four replicate wells were tested per assay which was repeated three times.

[2] = system: MCF-7 cells; experiment: MTT cell viability assay, MCF-7 cells; details: MTT, 24 h incubation; read-out: IC50 MCF-7
Description: as §1, §2

[3] = system: MDA-MB-231 cells; experiment: Hoechst 33342 staining for apoptosis; details: OHR-1 15 μM, OHR-2 5 μM, OHR-3 10 μM, OHR-5 15 μM; 12 h
Description: MDA-MB-231 cells were seeded in the flat-bottomed 6-well plates and treated with OHR-1, -2, -3 and -5. Cells treated with solvent vehicle served as controls. In 12 h after treatment, cells were fixed in 4% polyoxymethylene solution for 30 min and then washed with PBS. The fixed cells were incubated with Hoechst 33342 for 15 min at room temperature in the dark and then washed with PBS twice, which were finally observed under a fluorescence microscope (Convert Fluorescence Microsope Axiovert 200, HAL 100, HBO 100, Carl Zeiss MicroImaging Co., Ltd., Oberkochen, Germany) at a magnification of ×400.

[4] = system: HepG2 cells; experiment: MTT cell viability assay, HepG2 cells; details: MTT, 24 h incubation; read-out: IC50 HepG2
Description: as §1, §2

[5] = system: MDA-MB-231 cells; experiment: MTT cell viability assay, MDA-MB-231 cells; details: MTT, 24 h incubation; read-out: IC50 MDA-MB-231
Description: as §1, §2

[6] = system: MDA-MB-231 cells; experiment: JC-1 mitochondrial membrane potential; details: high concentration (OHR-1 15 μM, OHR-2 5 μM, OHR-3 10 μM, OHR-5 15 μM), 24 h
Description: The MDA-MB-231 cells were treated with OHR-1, -2, -3 and -5 for 24 h in a humidified atmosphere (37 °C with 5% CO2). The cells were collected and responded in 0.5 mL culture medium with JC-1 dye (1 μg/mL) for 20 min at 37 °C in dark. Fluorescence was monitored by both flow cytometry (BD Biosciences, San Jose, CA, USA) and fluorescence microscope. The Δψm were indicated by the rato of […] fluorescence intensity. The data were expressed as ratio of Δψm between treatments and control cells (solvent vehicle set at 100%).

[7] = system: MDA-MB-231 cells; experiment: Cell cycle analysis by PI staining and flow cytometry; details: 24 h
Description: Cells were seeded in 6-well tissue culture plates and treated with DMSO control or different concentration of OHR-1, -2, -3 and -5 for 24 h. Then, the cells were harvested and fixed gently with cold 70% ethanol at −20 °C overnight. Finally, the cells were washed with PBS and re-suspended in 300 μL of propidium iodide (PI) stain solution (20 μg/mL PI and 8 μg/mL DNase-free RNase) for 20 min at room temperature in the dark. The cells were analyzed with a flow cytometry and Mod Fit LT 3.0 software (Variety Software House, Topsham, ME, USA). For each measurement, at least 20,000 cells were counted.

[8] = system: A549 cells; experiment: MTT cell viability assay, A549 cells; details: MTT, 24 h incubation; read-out: IC50 A549
Description: as §1, §2

## (3S,8S,Z)-Heptadeca-9-en-4,6-diyne-3,8-diyl diacetate [OHR-1]
[1]
  IC50: > 300 µM
[2]
  IC50: > 300 µM
[3]
  induction of apoptosis (Hoechst staining): induce obvious apoptosis
[4]
  IC50: 115 ± 17.1 µM
[5]
  IC50: 13.9 ± 3.4 µM
[6]
  effect on mitochondrial membrane potential Δψm (JC-1): decreasing the Δψm
[7]; OHR-1 7.5 μM, OHR-2 2.5 μM, OHR-3 5 μM, OHR-5 7.5 μM
  G2/M arrest rate at low concentration: 24.6% ± 3.6%
[7]; OHR-1 15 μM, OHR-2 5 μM, OHR-3 10 μM, OHR-5 15 μM
  G2/M arrest rate at high concentration: 31.7% ± 3.2%
[8]
  IC50: > 300 µM
